Activity calls are given as the source filed them. The rule behind the calls is not given here.
What was measured:
[1] = tested on: PC-3; assay: Cytotoxicity against human PC3 cells assessed as growth inhibition at 50 uM after 48 hrs by SRB method; format: functional; details: PC-3, 48 h, read-out: GI
[2] = tested on: MCF7; assay: Cytotoxicity against human MCF7 cells assessed as growth inhibition at 50 uM after 48 hrs by SRB method; format: functional; details: for inhibition of growth at 50 µM: MCF7, 48 h, read-out: GI
[3] = (§1) Cytotoxicity against human HCT15 cells assessed as growth inhibition at 50 uM after 48 hrs by SRB method; format: functional; details: HCT-15, 48 h, read-out: GI
[4] = Cytotoxicity against mouse J774 cells assessed as growth inhibition at 50 uM after 48 hrs by SRB method; format: cell-based; details: read-out: GI
[5] = tested on: HCT-15; assay: as §1; format: functional

Row | SMILES | inhibition of growth at 50 µM [1] [%] | inhibition of growth at 50 µM [2] [%] | inhibition of growth at 50 µM [3] [%] | inhibition at 48 h, 50 µM [4] [%] | growth inhibition (GI) [2] | growth inhibition (GI) [5]
1 | CC(=O)[C@@]1(OC(=O)c2ccc(F)cc2)CC[C@H]2[C@@H]3C=CC4=CC(=O)CC[C@]4(C)[C@H]3CC[C@@]21C | 30.9 | 29.2 | 35.6 | 100 |  | 
2 | CC(=O)C1=CC[C@H]2[C@@H]3CC(=O)C4=C[C@@H](OC(=O)c5ccc(Cl)cc5)CC[C@]4(C)[C@H]3CC[C@]12C | 87.3 | 100 | 88.2 | 38.8 |  | 
3 | CC(=O)[C@@]1(OC(=O)Nc2ccc(I)cc2)CC[C@H]2[C@@H]3C=CC4=CC(=O)CC[C@]4(C)[C@H]3CC[C@@]21C | 17.8 |  |  | 21.7 | inactive | inactive
4 | CC(=O)[C@@]1(O)CC[C@H]2[C@@H]3C=CC4=CC(=O)CC[C@]4(C)[C@H]3CC[C@@]21C | 39.6 | 27.8 | 25 | 58.5 |  | 
5 | CC(=O)[C@@]1(OC(=O)c2ccc(I)cc2)CC[C@H]2[C@@H]3C=CC4=CC(=O)CC[C@]4(C)[C@H]3CC[C@@]21C | 30.8 | 22.6 | 27.5 | 74.3 |  | 
6 | CC(=O)C1=CC[C@H]2[C@@H]3CC(=O)C4=C[C@@H](O)CC[C@]4(C)[C@H]3CC[C@]12C | 70.6 | 63.5 | 67.7 | 98.9 |  | 
7 | CC(=O)[C@@]1(OC(=O)c2ccc(Cl)cc2)CC[C@H]2[C@@H]3C=CC4=CC(=O)CC[C@]4(C)[C@H]3CC[C@@]21C | 46.1 | 39.8 | 39.3 | 73.6 |  | 
8 | CC(=O)[C@@]1(OC(=O)c2ccccc2)CC[C@H]2[C@@H]3C=CC4=CC(=O)CC[C@]4(C)[C@H]3CC[C@@]21C | 42.5 | 26.8 | 50.8 | 100 |  | 
9 | CC(=O)C1=CC[C@H]2[C@@H]3CC(=O)C4=C[C@@H](OC(=O)c5ccccc5)CC[C@]4(C)[C@H]3CC[C@]12C | 2.9 | 32.7 | 48.7 | 89.3 |  | 
10 | CC(=O)C1=CC[C@H]2[C@@H]3CC(=O)C4=C[C@@H](OC(=O)c5ccc(Br)cc5)CC[C@]4(C)[C@H]3CC[C@]12C | 51.9 | 86.2 | 55.9 | 60.9 |  | 
11 | CC(=O)C1=CC[C@H]2[C@@H]3CC(=O)C4=C[C@@H](OC(=O)c5ccc(F)cc5)CC[C@]4(C)[C@H]3CC[C@]12C | 8.3 | 20.8 | 22.8 | 50 |  | 
12 | CC(=O)C1=CC[C@H]2[C@@H]3CC(=O)C4=C[C@@H](OC(=O)c5ccc(I)cc5)CC[C@]4(C)[C@H]3CC[C@]12C | 64.1 | 100 | 67.3 | 61.1 |  | 
13 | CC(=O)N1CCN(c2ccc(OCC3COC(Cn4ccnc4)(c4ccc(Cl)cc4Cl)O3)cc2)CC1 (configuration not stated) [KETOCONAZOLE] | 88.5 | 95.2 | 90.6 | 54 |  | 
14 | CC(=O)C1=CC[C@H]2[C@@H]3CC(=O)C4=C[C@@H](OC(=O)Nc5ccc(Cl)cc5)CC[C@]4(C)[C@H]3CC[C@]12C | 63.4 | 13.7 | 65.3 | 92.4 |  | 
15 | CC(=O)C1=CC[C@H]2[C@@H]3CC(=O)C4=C[C@@H](OC(=O)Nc5ccccc5)CC[C@]4(C)[C@H]3CC[C@]12C | 4.5 | 34.7 | 41.4 | 73.8 |  | 
16 | CC(=O)C1=CC[C@H]2[C@@H]3CC(=O)C4=C[C@@H](OC(=O)Nc5ccc(Br)cc5)CC[C@]4(C)[C@H]3CC[C@]12C | 26.9 | 14 | 30 | 80.5 |  | 
17 | CC(=O)[C@@]1(OC(=O)Nc2ccccc2)CC[C@H]2[C@@H]3C=CC4=CC(=O)CC[C@]4(C)[C@H]3CC[C@@]21C | 96.6 | 51.3 | 45.3 | 48.2 |  | 
18 | CC(=O)C1=CC[C@H]2[C@@H]3CC(=O)C4=C[C@@H](OC(=O)Nc5ccc(I)cc5)CC[C@]4(C)[C@H]3CC[C@]12C | 42.8 | 33.1 | 43.2 | 70.7 |  | 
19 | CC(=O)[C@@]1(OC(=O)c2ccc(Br)cc2)CC[C@H]2[C@@H]3C=CC4=CC(=O)CC[C@]4(C)[C@H]3CC[C@@]21C | 84.7 | 44.4 | 53.9 | 57 |  | 
20 | CC(=O)C1=CC[C@H]2[C@@H]3CC(=O)C4=C[C@@H](OC(=O)Nc5ccc(F)cc5)CC[C@]4(C)[C@H]3CC[C@]12C | 33 | 34.6 | 60.1 | 78.3 |  | 
21 | CC(=O)[C@@]1(OC(=O)Nc2ccc(Br)cc2)CC[C@H]2[C@@H]3C=CC4=CC(=O)CC[C@]4(C)[C@H]3CC[C@@]21C | 26.4 | 13.1 |  | 32 |  | inactive
22 | CC(=O)[C@@]1(OC(=O)Nc2ccc(F)cc2)CC[C@H]2[C@@H]3C=CC4=CC(=O)CC[C@]4(C)[C@H]3CC[C@@]21C | 33.4 | 20 |  | 43.4 |  | inactive
23 | CC(=O)[C@@]1(OC(=O)Nc2ccc(Cl)cc2)CC[C@H]2[C@@H]3C=CC4=CC(=O)CC[C@]4(C)[C@H]3CC[C@@]21C | 15.8 | 11.2 |  | 36.9 |  | inactive

Source: ChEMBL document CHEMBL3286271, “Synthesis and cytotoxic effect on cancer cell lines and macrophages of novel progesterone derivatives having an ester or a carbamate function at C-3 and C-17” (Eur J Med Chem, 2014)
